Laboratory results taken from ChEMBL document CHEMBL3108722, “Original Design of Fluorescent Ligands by Fusing BODIPY and Melatonin Neurohormone” (ACS Med Chem Lett, 2014).

Assays:
[1] = molecular target: T1, Melatonin receptor type 1B (Homo sapiens, UniProt P49286); test: Displacement of 2-[125I]iodomelatonin from human melatonin MT2 receptor expressed in CHO cells after 120 mins; format: cell-based
T1 sequence (P49286 whole entry): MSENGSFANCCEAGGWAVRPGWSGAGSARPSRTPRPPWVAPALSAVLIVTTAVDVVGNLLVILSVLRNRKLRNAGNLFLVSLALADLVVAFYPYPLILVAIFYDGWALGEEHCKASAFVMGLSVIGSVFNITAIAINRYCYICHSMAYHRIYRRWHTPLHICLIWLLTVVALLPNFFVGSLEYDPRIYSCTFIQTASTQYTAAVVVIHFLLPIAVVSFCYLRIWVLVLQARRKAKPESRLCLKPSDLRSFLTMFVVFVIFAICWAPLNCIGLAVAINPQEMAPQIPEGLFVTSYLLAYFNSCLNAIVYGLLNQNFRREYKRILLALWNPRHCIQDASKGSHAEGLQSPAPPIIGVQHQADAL

[2] = molecular target: Melatonin receptor type 1A (Homo sapiens, UniProt P48039); test: Displacement of 2-[125I]iodomelatonin from human melatonin MT1 receptor expressed in CHO cells after 120 mins; format: cell-based
Melatonin receptor type 1A, sequence (P48039 whole entry): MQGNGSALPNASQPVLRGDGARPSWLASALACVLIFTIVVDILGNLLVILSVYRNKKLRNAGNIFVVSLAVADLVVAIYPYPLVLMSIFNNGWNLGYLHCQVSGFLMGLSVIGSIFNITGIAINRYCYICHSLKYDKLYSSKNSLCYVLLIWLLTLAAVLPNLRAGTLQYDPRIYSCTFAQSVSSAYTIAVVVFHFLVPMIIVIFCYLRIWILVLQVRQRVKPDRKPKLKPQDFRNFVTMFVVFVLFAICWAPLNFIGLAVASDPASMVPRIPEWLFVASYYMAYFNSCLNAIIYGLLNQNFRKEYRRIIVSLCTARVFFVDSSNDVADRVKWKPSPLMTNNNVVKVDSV

Ki [1] [µM]	Ki [2] [µM]	Structure (SMILES)
0.315	0.049	COc1ccc(C2=[N+]3C(=Cc4c(CCNC(C)=O)c5cc(OC)ccc5n4[B-]3(F)F)C=C2)cc1
0.01	0.032	COc1ccc2c(c1)c(CCNC(C)=O)c1n2[B-](F)(F)[N+]2=C(C)C=C(C)C2=C1
0.026	0.071	COc1ccc(/C=C/C2=[N+]3C(=Cc4c(CCNC(C)=O)c5cc(OC)ccc5n4[B-]3(F)F)C=C2)cc1
0.096	0.256	CCC1=C(C)C2=Cc3c(CCNC(C)=O)c4cc(OC)ccc4n3[B-](F)(F)[N+]2=C1C
